The test system of one series is MDA-MB-231. Description: MTT cytotoxicity. In kind it is cell-based, human. Conditions: MDA-MB-231, 3 d. On the procedure:
Cells of the MDA-MB-231 line (Bioresource Collection and Research Center, Taiwan) were cultured in RPMI 1640 medium supplemented with 10% fetal bovine serum under 5% CO2 atmosphere at 37° C. Twenty-four-well cell culture plates were inoculated with 1×10^5 cells/well and kept at 37° C. for 24 h. The culture medium was changed in the presence of various concentrations of different treatments ([…] alone, carboplatin, cisplatin, and CPN) in culture medium (three replicates). The tests were performed for 3 d without changing the medium. After the overlaying cell-culture medium was removed, the cells were incubated with 3-(4,5-dimethylthiazol-2-yl)-2,5-diphenyltetrazolium bromide (MTT, Sigma, Mo. USA) at 37° C. for 1 h. After treatment, the fomazan product from MTT was dissolved in DMSO and quantified using a conventional ELISA reader at 570 nm. For calibration, a blank test was performed in a 24-well plate under the same conditions.

In a further series the test system is MDA-MB-231 cell line. Description: ROS assay using CM-H2DCFDA. In kind it is cell-based, human. Particulars: 3 h. On the procedure:
MDA-MB-231 cell line was cultured in RPMI 1640 medium (media were supplemented with 10% fetal bovine serum) under 5% CO2 atmosphere at 37° C. The cells were inoculated with 1×10^5 cells per well in a 6-well cell-culture plate and cultivated at 37° C. for 24 h. Then, the culture medium was changed with the presence of various treatments, including […] alone, the CPN, cisplatin, and 0.03% H2O2 in the culture medium. The tests were performed for 3 h without changing the medium. After removal of the supernatant of cell culture medium, the cells were isolated for ROS assay using CM-H2DCFDA from INVITROGENTM.

The nature of series [1]: Maximal tolerated dose (Table 1). Particulars: IV injection. In kind it is in vivo. How it is done: The therapeutic efficacy of CPN using subcutaneous breast cancer xenograft in mice was evaluated by intratumoral (IT) injection. The maximal tolerated dose (MTD) of various drugs, such as CPN and cisplatin, was described in Table 1. […] Thus, the programmed death pathway of CPN-treated cells might be similar to that of cisplatin-treated cells. We verified whether the CPN could be injected into blood vessels to exert tumor-inside activation for anticancer chemotherapeutics. Thus, the CPN was extra coated with a cleavable PEG layer to prevent protein adhesions after intravenous (i.v.) injection to form a double-caged PN (DCPN). […] To render the DCPN with a targeting function, an iRGD tumor-penetrating peptide was co-administered with the DCPN into subcutaneous xenograft nude mice of breast cancer by IV administration. The tumor size in each mouse was grown to about 150 mm^3 to facilitate DCPN delivery. Additionally, the DCPN and one of the control groups (G2NH2 coated with a PEG corona) were pre-attached with as NIR dye, cy5.5, for real-time tracking alter administration. […] Consecutive tissue sections front four groups, including the control, cisplatin, G2NH2, and DCPN groups were examined histologically by hematoxylin and eosin (H&E) staining at the end point, and the slides were evaluated by an independent pathologist (FIG. 16). […]

For series [2], the system named is subcutaneous breast cancer xenograft. In words: Tumor suppression after IT injection. Particulars: IT injection once a week for 3 weeks, vs PBS and G2NH2. In kind it is in vivo, Balb/c nude mice. How it is done:
(§1) Seven-week-old female Balb/c nude mice (16-20 g) were kept on a 12-h light/12-h dark cycle at 24±2° C. and 50±10% relative humidity, with free access to water and food. They were subcutaneously injected with […] cells/mouse to establish a breast tumor model. Tumors were measured by a digital Vernier caliper across each tumor's longest (a) and shortest (b) diameter, and tumor volume (V) was calculated by the formula V=0.5a×b^2. When the tumor size reached approximately 60 mm^3 and 150 mm^3, CPN and DCPN were administered by IT and IV injection, respectively. The stud of comparative efficiency in tumor suppression was performed. The mice were treated with CPN via IT injections once a week for a total of 3 weeks. Similarity. DCPN was administered to mice via IV once a week for 4 weeks. The injection volume was 5 μL/g body weight and the tumor size was calculated every 2 to 3 days. After the mice were sacrificed, tumors and blood were collected and placed in EDTA glass tubes.

For series [3] the test system is unchanged. In words: TUNEL assay of tumor tissue. In kind it is in vivo, Balb/c nude mice. Conditions: after treatment for 48 hours. The source says: Terminal dexoxynucleotidyl […]-mediated dUTP nick end labeling (TUNEL) assay was used for in situ detection of apoptotic cell death. The frozen sections of tumor tissue (4 μm thick) were warmed up to room temperature. The slides were washed 3 times with PBS to remove OCT (one of tumor's embedded medium for frozen tissues). The labeling procedures followed the standard protocol of this kit. These slides were stained with 3,3'-diaminobenzidne (DAB, Thermo, S21024-2), then counterstained with hematoxylin and mounted onto glass coverslisps before monitoring by light microscopy.

Series [4] has the same test system. In words: Active caspase-3 immunohistochemistry of tumor tissue. In kind it is in vivo, Balb/c nude mice. How it is done: The frozen sections of tumor tissue (4 μm thick) were warm up to room temperature washed 3 times with PBS (5 min/time), and fixed with freshly prepared 4% paraformaldehyde in PBS for 15 minutes. The fixed sections were immersed in a polyclonal rabbit anti-mouse active caspase-3 antibody (Abeam Inc., ab2302, 5 μg/mL in 10% BSA of PBS, 50 μL/sample) at 4° C. for overnight, followed by washing with PBS (three times, 15 min/time) and incubating with peroxidase-conjugated polyclonal goat anti-rabbit antibodies (Abeam Inc., ab6721-200, 1:500 (v/v) in PBS, 100 μL/sample) at room temperature for 2 hours. These slides were first stained with DAB, subsequently counterstained with hematoxylin, and mounted with glass coverslisps before monitoring by light microscopy.

For series [5], the system named is subcutaneous xenograft of breast cancer. In words: Tumor suppression after IV injection with iRGD co-administration. In kind it is in vivo, Balb/c nude mice. Conditions: IV 16.6 μmol/kg at 7-day intervals, 4 weeks, iRGD co-administered, vs PBS and G2NH2. How it is done:
as §1
The therapeutic efficacy of CPN using subcutaneous breast cancer xenograft in mice was evaluated by intratumoral (IT) injection. […] Consecutive tissue sections front four groups, including the control, cisplatin, G2NH2, and DCPN groups were examined histologically by hematoxylin and eosin (H&E) staining at the end point, and the slides were evaluated by an independent pathologist (FIG. 16). […]

SMILES strings stand for the structures.

What is called IC50 is the concentration that inhibits the measured activity by half. The low end stands for inhibition by little substance, the high end for a need for much substance. For the compound `N.N.O=C([O-])C1(C(=O)[O-])CCC1.[Pt+2]` [carboplatin], in the series on MDA-MB-231, the IC50 was determined as 35 µg/mL.

`N.N.[Cl][Pt][Cl]` [cisplatin]: the IC50 in the series on MDA-MB-231 turned out to be 7 µg/mL. Besides, in the series on MDA-MB-231 cell line, the ROS production result is “no significant ROS increase or decrease”. Besides, in series [1], the “maximal tolerated dose (MTD)” value was determined as 16.6 µmol/kg. Also, the tumor suppression entry in series [2] is given as “notably efficacious in tumor suppression”. In series [3], the “TUNEL staining (broken DNA strands)” value was “TUNEL-positive staining”. The “apoptosis by active caspase-3 immunostaining” value in series [4] is given as “can indeed cause apoptosis”. Also, in series [5], the “tumor growth / tumor volume” value is given as “can indeed cause tumors to shrink”.

The values are drawn from patent publication US9095616B2, “Caged platinum nanoclusters for anticancer chemotherapeutics” (priority 2013, dated 2015).
